According to patent US20240150377A1, “MODULATORS OF CYSTIC FIBROSIS TRANSMEMBRANE CONDUCTANCE REGULATOR” (VERTEX PHARMACEUTICALS INCORPORATED, priority 2020, published 2024):
Read-outs that look alike come from different tables or passages of the source. Each block holds one compound with its values, some of them ahead of it.

Legend:
[1] = amide bond, 13-membered ring
CFTR [2] = molecular target: T1, CFTR (Homo sapiens, UniProt P13569); experiment: Membrane potential dye, Enteroid Assay B; type: cell-based; settings: for EC50: read-out: Ent. B EC50; for Ent. B Max Activity: chloride transport as % of triple combination control (Enteroid Assay B)
Outline: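 Fluorescence read over 15 min after chloride-free stimulation (10 μM forskolin, 100 μM IBMX, 300 nM Compound III) gave chloride transport, reported as % activity versus a triple-corrector/potentiator control. Beforehand, human enteroid cells had 18-24 h compound exposure at 37° C and 25 min methyl oxonol dye loading at room temperature.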

CFTR [3] = molecular target: T1, CFTR; experiment: Membrane potential dye, Enteroid Assay A; type: cell-based; settings: for Ent. A Max Activity: chloride transport as % of triple combination control (Enteroid Assay A); for EC50: human enteroid cells, 18-24 hours, acute 10 μM forskolin and 300 nM ivacaftor, read-out: Ent. A EC50
Outline: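 % Activity: chloride transport relative to a 3 μM/3 μM corrector pair plus 300 nM acute potentiator control. Primary human enteroid cells, 18-24 h compound exposure at 37 °C; membrane potential dye (methyl oxonol) fluorescence over 15 min after forskolin (10 μM)/IBMX (100 μM)/Compound III (300 nM) stimulation in chloride-free buffer.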

F508del = molecular target: T2, F508del (Homo sapiens, UniProt P13569, DEL508-508); experiment: 3T3 assay: membrane potential optical assay for F508del correction; type: cell-based; settings: Table 6, F508del NIH 3T3 cells; for Emax: NIH3T3, compared to lumacaftor in combination with acutely added 300 nM Ivacaftor, read-out: 3T3 Max Activity; for EC50: 18-24 hours at 37° C., forskolin, acutely added 300 nM Ivacaftor
T2 construct: expressed in transfected cells
Outline: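 NIH 3T3 mouse fibroblasts stably expressing F508del incubated with corrector compounds across a concentration range for 16-24 hours at 37° C, then loaded with voltage-sensing redistribution dye. Response is FLIPR membrane potential change on forskolin activation with a chloride gradient (chloride-free gluconate bath, HEPES pH 7.4).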

[4] = Table 8, human enteroid cells, 18-24 hours, acute 10 μM forskolin and 300 nM ivacaftor

T2 sequence (P13569 with tags, fused parts or gaps DEL508-508): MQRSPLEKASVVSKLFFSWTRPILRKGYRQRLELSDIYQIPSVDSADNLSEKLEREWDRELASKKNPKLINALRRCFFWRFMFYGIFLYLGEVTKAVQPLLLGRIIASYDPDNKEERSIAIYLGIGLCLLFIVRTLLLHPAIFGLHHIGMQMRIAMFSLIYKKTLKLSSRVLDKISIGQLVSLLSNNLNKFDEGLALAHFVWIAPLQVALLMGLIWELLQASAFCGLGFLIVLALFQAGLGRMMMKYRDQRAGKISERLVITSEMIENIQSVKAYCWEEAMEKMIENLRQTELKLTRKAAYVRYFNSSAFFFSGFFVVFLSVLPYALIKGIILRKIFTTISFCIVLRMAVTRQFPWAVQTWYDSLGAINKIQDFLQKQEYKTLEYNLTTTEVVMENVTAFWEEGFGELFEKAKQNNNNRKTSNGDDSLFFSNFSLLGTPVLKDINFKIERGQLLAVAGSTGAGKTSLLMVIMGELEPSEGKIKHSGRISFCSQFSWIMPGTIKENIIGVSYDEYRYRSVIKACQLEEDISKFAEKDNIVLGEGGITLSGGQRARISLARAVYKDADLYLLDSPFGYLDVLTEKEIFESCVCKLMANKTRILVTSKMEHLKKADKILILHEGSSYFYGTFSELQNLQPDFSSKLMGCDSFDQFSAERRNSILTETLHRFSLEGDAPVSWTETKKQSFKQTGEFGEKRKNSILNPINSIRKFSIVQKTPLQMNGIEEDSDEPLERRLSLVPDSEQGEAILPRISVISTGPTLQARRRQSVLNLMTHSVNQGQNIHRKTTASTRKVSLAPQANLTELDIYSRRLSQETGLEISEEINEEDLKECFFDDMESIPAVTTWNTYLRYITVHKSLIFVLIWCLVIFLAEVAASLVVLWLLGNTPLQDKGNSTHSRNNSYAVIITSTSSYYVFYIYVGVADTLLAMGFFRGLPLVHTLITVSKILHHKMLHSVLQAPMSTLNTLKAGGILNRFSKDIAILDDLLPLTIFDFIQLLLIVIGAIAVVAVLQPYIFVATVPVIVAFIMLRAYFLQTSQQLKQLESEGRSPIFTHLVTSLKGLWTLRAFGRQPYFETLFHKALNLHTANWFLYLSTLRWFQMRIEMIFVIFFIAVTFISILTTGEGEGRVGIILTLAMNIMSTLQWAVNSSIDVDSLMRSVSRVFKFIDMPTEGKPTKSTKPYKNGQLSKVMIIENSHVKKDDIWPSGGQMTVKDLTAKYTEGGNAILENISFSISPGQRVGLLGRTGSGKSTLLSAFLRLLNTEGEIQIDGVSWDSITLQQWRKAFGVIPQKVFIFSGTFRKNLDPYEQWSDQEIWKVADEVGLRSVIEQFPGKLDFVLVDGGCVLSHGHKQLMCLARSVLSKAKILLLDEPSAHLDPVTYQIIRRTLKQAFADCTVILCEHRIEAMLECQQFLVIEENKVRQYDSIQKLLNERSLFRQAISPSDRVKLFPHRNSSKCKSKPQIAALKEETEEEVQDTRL
T1 sequence (P13569 with tags, fused parts or gaps DEL508-508): as above

Ent. B Max Activity (%) (CFTR [2]; Table 9): +++ (+++ is >600%)
EC50 (CFTR [2]; Table 9): < 1000 nM
SMILES: Cc1cccc(C)c1-c1cc2nc(n1)NS(=O)(=O)c1cccc(c1)C(=O)N(Cc1ccc(N3CCOCC3)cn1)[C@H](CC(C)(C)C)CO2 [Compound 48, (11R)-6-(2,6-Dimethylphenyl)-11-(2,2-dimethylpropyl)-12-[(5-morpholino-2-pyridyl)methyl]-2,2-dioxo-9-oxa-2λ^6-thia-3,5,12,19-tetrazatricyclo[12.3.1.14,8]nonadeca-1(18),4(19),5,7,14,16-hexaen-13-one]
ring closure, yield after HPLC ([1]; from Cc1cccc(C)c1-c1cc(OC[C@@H](CC(C)(C)C)NCc2ccc(N3CCOCC3)cn2)nc(NS(=O)(=O)c2cccc(C(=O)O)c2)n1, CDMT/NMM, DMF, 16.9 mM, 25.0 °C, 2.33 h, 2 steps): 22%

Ent. B Max Activity (%) (CFTR [2]; Table 9): +++ (+++ is >600%)
EC50 (CFTR [2]; Table 9): < 1000 nM
SMILES: COC(=O)c1ccc(CCN2C(=O)c3cccc(c3)S(=O)(=O)Nc3nc(cc(-c4c(C)cccc4C)n3)OC[C@H]2CC(C)(C)C)cc1 [Compound 1081]
ring closure, yield after HPLC ([1]; from COC(=O)c1ccc(CCN[C@@H](COc2cc(-c3c(C)cccc3C)nc(NS(=O)(=O)c3cccc(C(=O)O)c3)n2)CC(C)(C)C)cc1, HATU/DIEA, DMF, 25.0 °C, 16.0 h, 2 steps): 23%

Ent. B Max Activity (CFTR [2]; Table 8): +++ (+++ is >60%)
EC50 (CFTR [2]; [4]): < 1000 nM
SMILES: Cc1cccc(C)c1-c1cc2nc(n1)NS(=O)(=O)c1cccc(c1)C(=O)N(Cc1ncccn1)[C@H](CC(C)(C)C)CO2 [Compound 113, (11R)-6-(2,6-Dimethylphenyl)-11-(2,2-dimethylpropyl)-12-[(pyrimidin-2-yl)methyl]-9-oxa-2λ^6-thia-3,5,12,19-tetraazatricyclo[12.3.1.14,8]nonadeca-1(17),4(19),5,7,14(18),15-hexaene-2,2,13-trione]
ring closure, yield after HPLC ([1]; from Cc1cccc(C)c1-c1cc(OC[C@@H](CC(C)(C)C)NCc2ncccn2)nc(NS(=O)(=O)c2cccc(C(=O)O)c2)n1, COMU/DIEA, DMF, 28.1 mM, 25.0 °C, 6.0 h): 33%

Ent. B Max Activity (CFTR [2]; Table 8): +++ (+++ is >60%)
EC50 (CFTR [2]; [4]): < 1000 nM
SMILES: Cc1cccc(C)c1-c1cc2nc(n1)NS(=O)(=O)c1cccc(n1)C(=O)N(Cc1ncccn1)[C@H](CC(C)(C)C)CO2 [Compound 75, (11R)-6-(2,6-dimethylphenyl)-11-(2,2-dimethylpropyl)-12-[(pyrimidin-2-yl)methyl]-9-oxa-2λ^6-thia-3,5,12,18,19-pentaazatricyclo[12.3.1.14,8]nonadeca-1(18),4(19),5,7,14,16-hexaene-2,2,13-trione]
ring closure, yield after HPLC ([1]; from Cc1cccc(C)c1-c1cc(OC[C@@H](CC(C)(C)C)NCc2ncccn2)nc(NS(=O)(=O)c2cccc(C(=O)O)n2)n1, HATU/DIEA, DMF, 30.5 mM, 25.0 °C, 0.5 h): 46%

Ent. A Max Activity (CFTR [3]; Table 6): +++ (+++ is >60%)
EC50 (CFTR [3]; Table 6): < 1000 nM
Emax (F508del): > 60%
EC50 (F508del): < 1000 nM
SMILES: Cc1cccc(C)c1-c1cc2nc(n1)NS(=O)(=O)c1cccc(c1)C(=O)N(C)[C@H](CC(C)C)[C@H](CC(C)C)O2 [Compound 2, (10S,11R)-6-(2,6-Dimethylphenyl)-12-methyl-10,11-bis(2-methylpropyl)-9-oxa-2λ^6-thia-3,5,12,19-tetraazatricyclo[12.3.1.14,8]nonadeca-1(18),4(19),5,7,14,16-hexaene-2,2,13-trione]
ring closure, yield after HPLC ([1]; from CN[C@H](CC(C)C)[C@H](CC(C)C)Oc1cc(-c2c(C)cccc2C)nc(NS(=O)(=O)c2cccc(C(=O)O)c2)n1, HATU/TEA, DMF, 18.8 mM, 15.0 h): 47%

Ent. B Max Activity (CFTR [2]; Table 8): +++ (+++ is >60%)
EC50 (CFTR [2]; [4]): < 1000 nM
SMILES: Cc1cccc(C)c1-c1cc2nc(n1)NS(=O)(=O)c1cccc(c1)C(=O)N(Cc1cccnn1)[C@H](CC(C)(C)C)CO2 [Compound 135, (11R)-6-(2,6-dimethylphenyl)-11-(2,2-dimethylpropyl)-12-[(pyridazin-3-yl)methyl]-9-oxa-2λ^6-thia-3,5,12,19-tetraazatricyclo[12.3.1.14,8]nonadeca-1(18),4,6,8(19),14,16-hexaene-2,2,13-trione]
ring closure, yield after HPLC ([1]; from Cc1cccc(C)c1-c1cc(OC[C@@H](CC(C)(C)C)NCc2cccnn2)nc(NS(=O)(=O)c2cccc(C(=O)O)c2)n1, COMU/DIEA, DMF, 40.7 mM, 16.0 h): 22%

Ent. A Max Activity (CFTR [3]; Table 7): +++ (+++ is >60%)
EC50 (CFTR [3]; Table 7): < 1000 nM
SMILES: Cc1cccc(C)c1-c1cc2nc(n1)NS(=O)(=O)c1cccc(c1)C(=O)N(Cc1cn(C)nc1C(C)(C)C)[C@H](CC(C)C)CO2 [Compound 83, (11R)-12-[(3-tert-Butyl-1-methyl-pyrazol-4-yl)methyl]-6-(2,6-dimethylphenyl)-11-isobutyl-2,2-dioxo-9-oxa-2λ^6-thia-3,5,12,19-tetrazatricyclo[12.3.1.14,8]nonadeca-1(18),4(19),5,7,14,16-hexaen-13-one]
ring closure, yield after HPLC ([1]; from Cc1cccc(C)c1-c1cc(OC[C@@H](CC(C)C)NCc2cn(C)nc2C(C)(C)C)nc(NS(=O)(=O)c2cccc(C(=O)O)c2)n1, HATU/DIEA, DMF, 20.4 mM, 25.0 °C, 18.0 h): 32%

Ent. A Max Activity (CFTR [3]; Table 6): +++ (+++ is >60%)
EC50 (CFTR [3]; Table 6): < 1000 nM
SMILES: Cc1cccc(C)c1-c1cc2nc(n1)NS(=O)(=O)c1cccc(c1)C(=O)N(CCC(C)(C)C)[C@H](CC(C)(C)C)CO2 [Compound 138, (11R)-12-(3,3-Dimethylbutyl)-6-(2,6-dimethylphenyl)-11-(2,2-dimethylpropyl)-2,2-dioxo-9-oxa-2λ^6-thia-3,5,12,19-tetrazatricyclo[12.3.1.14,8]nonadeca-1(18),4(19),5,7,14,16-hexaen-13-one]
ring closure, yield after HPLC ([1]; from Cc1cccc(C)c1-c1cc(OC[C@@H](CC(C)(C)C)NCCC(C)(C)C)nc(NS(=O)(=O)c2cccc(C(=O)O)c2)n1, HATU/DIEA, DMF, 8.4 mM, 2.0 h): 39%

Ent. A Max Activity (CFTR [3]; Table 6): +++ (+++ is >60%)
EC50 (CFTR [3]; Table 6): < 1000 nM
Emax (F508del): > 60%
EC50 (F508del): < 1000 nM
SMILES: Cc1cccc(C)c1-c1cc2nc(n1)NS(=O)(=O)c1cccc(c1)C(=O)N(CC1CC3(CCOCC3)C1)[C@H](CC(C)C)CO2 [Compound 40, (11R)-6-(2,6-Dimethylphenyl)-11-isobutyl-12-(7-oxaspiro[3.5]nonan-2-ylmethyl)-2,2-dioxo-9-oxa-2λ^6-thia-3,5,12,19-tetrazatricyclo[12.3.1.14,8]nonadeca-1(18),4(19),5,7,14,16-hexaen-13-one]
ring closure, yield after HPLC ([1]; from Cc1cccc(C)c1-c1cc(OC[C@@H](CC(C)C)NCC2CC3(CCOCC3)C2)nc(NS(=O)(=O)c2cccc(C(=O)O)c2)n1, HATU/DIEA, DMF, 18.8 mM, 1.0 h): 63%

Ent. A Max Activity (CFTR [3]; Table 6): +++ (+++ is >60%)
EC50 (CFTR [3]; Table 6): < 1000 nM
SMILES: Cc1cccc(C)c1-c1cc2nc(n1)NS(=O)(=O)c1cccc(c1)C(=O)N(CCC1CCOCC1)C(CCC1(C(F)(F)F)CC1)CO2 (stereo not drawn) [Compound 74, 6-(2,6-dimethylphenyl)-2,2-dioxo-12-(2-tetrahydropyran-4-ylethyl)-11-[2-[1-(trifluoromethyl)cyclopropyl]ethyl]-9-oxa-2λ^6-thia-3,5,12,19-tetrazatricyclo[12.3.1.14,8]nonadeca-1(18),4(19),5,7,14,16-hexaen-13-one]
ring closure, yield after HPLC ([1]; from Cc1cccc(C)c1-c1cc(OCC(CCC2(C(F)(F)F)CC2)NCCC2CCOCC2)nc(NS(=O)(=O)c2cccc(C(=O)O)c2)n1, HATU/DIEA, DMF, 24.1 mM, 16.0 h): 23%

Ent. A Max Activity (CFTR [3]; Table 7): +++ (+++ is >60%)
EC50 (CFTR [3]; Table 7): < 1000 nM
Ent. B Max Activity (CFTR [2]; Table 7): +++ (+++ is >60%)
EC50 (CFTR [2]; Table 7, human enteroid cells, 18-24 hours, acute 10 μM forskolin and 300 nM ivacaftor): < 1000 nM
SMILES: COCCCCN1C(=O)c2cccc(c2)S(=O)(=O)Nc2nc(cc(-c3c(C)cccc3C)n2)OC[C@H]1CC(C)C [Compound 84, (11R)-6-(2,6-dimethylphenyl)-11-isobutyl-12-(4-methoxybutyl)-2,2-dioxo-9-oxa-2λ^6-thia-3,5,12,19-tetrazatricyclo[12.3.1.14,8]nonadeca-1(18),4(19),5,7,14,16-hexaen-13-one]
ring closure, yield after HPLC ([1]; from COCCCCN[C@@H](COc1cc(-c2c(C)cccc2C)nc(NS(=O)(=O)c2cccc(C(=O)O)c2)n1)CC(C)C, NaOtBu then HATU, THF, 98.4 mM, 25.0 °C, 1.0 h, 2 steps): 9%

Ent. B Max Activity (CFTR [2]; Table 8): +++ (+++ is >60%)
EC50 (CFTR [2]; [4]): < 1000 nM
SMILES: Cc1cccc(C)c1-c1cc2nc(n1)NS(=O)(=O)c1cccc(c1)C(=O)N(Cc1cnc(N)nc1)[C@H](CC(C)(C)C)CO2 [Compound 136, (11R)-12-[(2-Aminopyrimidin-5-yl)methyl]-6-(2,6-dimethylphenyl)-11-(2,2-dimethylpropyl)-9-oxa-2λ^6-thia-3,5,12,19-tetraazatricyclo[12.3.1.14,8]nonadeca-1(18),4,6,8(19),14,16-hexaene-2,2,13-trione]
ring closure, yield after HPLC ([1]; from Cc1cccc(C)c1-c1cc(OC[C@@H](CC(C)(C)C)NCc2cnc(N)nc2)nc(NS(=O)(=O)c2cccc(C(=O)O)c2)n1, COMU/DIEA, DMF, 29.3 mM, 5.0 h): 33%
